Test results: patent US20150335610A1, “PDK4 INHIBITOR AND USE THEREOF” (priority 2012, published 2015)

Columns and labels:
[1] = system: pyruvate dehydrogenase (PDH); type: in vivo, mouse; settings: KIS7 2.8 mg/kg/day, DCA 56 mg/kg/day i.p., FIG. 10
[2] = biological target: PDK4 (Homo sapiens, UniProt Q16654); assay: PDK4-inhibitory activity by off-chip mobility shift assay (phosphorylation of PDH E1 subunit); type: biochemical; settings: for IC50: phosphorylation of E1 subunit of PDH, 100 μM ATP, human recombinant PDK
Sequence of PDK4 (Q16654 whole entry): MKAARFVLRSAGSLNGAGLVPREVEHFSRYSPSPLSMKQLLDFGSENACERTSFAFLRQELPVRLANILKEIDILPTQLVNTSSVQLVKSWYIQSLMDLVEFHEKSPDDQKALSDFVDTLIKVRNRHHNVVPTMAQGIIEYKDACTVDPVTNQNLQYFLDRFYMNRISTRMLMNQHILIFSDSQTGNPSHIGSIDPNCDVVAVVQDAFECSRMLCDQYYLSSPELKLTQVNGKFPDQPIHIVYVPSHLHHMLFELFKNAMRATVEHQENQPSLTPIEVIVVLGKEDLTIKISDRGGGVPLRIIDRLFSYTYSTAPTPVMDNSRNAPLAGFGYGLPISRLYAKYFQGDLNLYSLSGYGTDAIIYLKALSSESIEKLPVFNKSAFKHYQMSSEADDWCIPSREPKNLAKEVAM
Procedure: The PDK2 and PDK4-inhibitory activities were determined by measuring the phosphorylation of the E1 subunit of PDH in the presence of 100 μM ATP.
1) 5 μL of 4-fold concentrated solutions of test substances, 5 μL of 4-fold concentrated solutions of substrates (recombinant human PDH)/ATP/metal, and 10 μL of 2-fold concentrated solutions of human recombinant PDK were prepared with an assay buffer (20 mM HEPES, 0.01% Triton X-100, 2 mM DTT, pH 7.5) and then were mixed in the wells of a polypropylene 384-well plate, followed by reactions for five hours at room temperature.
2) Reactions were terminated by adding 60 μL of Termination Buffer (QuickScout Screening Assist MSA; Carna Biosciences, Inc.).
3) Peptide substrates and phosphorylated peptides in the reaction solutions were separated by LabChip3000 system (Caliper Life Science) and quantified (gel shift assay). The phosphorylation activity was assessed by product ratios (P/(P+S)) calculated from the peptide substrate peak height (S) and the phosphorylated peptide peak height (P).
4) The inhibitory percentage was calculated as follows.

[3] = system: normal cells; assay: Anchorage-independent growth of normal cells; type: cell-based; settings: even at the order of several tens of μM
[4] = system: HeLaS3 cells; assay: Soft agar colony formation assay of cancer cells HeLaS3; type: cell-based; settings: at 3 μM; eight days of culture; FIG. 14
Procedure: A conventional method was employed for a soft agar colony formation assay of cancer cells HeLaS3 (C. Oneyama et. al. Genes to Cells 2008; 13: 1 to 129). The HeLaS3 cells (4×10^4) were mixed with 3 ml of soft agar medium (Dulbecco modified Eagle's medium, 10% calf serum, 0.36% agar) and poured into a well of 6 cm-cell culture plate, which was added 5 ml of the base agar medium (Dulbecco modified Eagle's medium, 10% calf serum, 0.7% agar) in advance. After eight days of culture in a carbon dioxide gas incubator at 37° C., colonies were stained with MTT (3-(4,5-dimethylthiazol-2-yl)-2,5-diphenyltetrazolium bromide).

[5] = system: cells cancerated by Ras; assay: Anchorage-independent sphere growth of cells cancerated by Ras; type: cell-based; settings: at μM to 10 μM order
[6] = background art, Non-Patent Literature 4; cited from earlier work

Structure (SMILES) | PDH enzyme activity in liver tissue [1] | dose inhibiting PDK4 compared with DCA and Radicicol ([2]; FIG. 4) | effect on PDK4 activity (activation or inhibition) ([2]; comparison with known PDK inhibitory substances, FIG. 4) | IC50 [2] [µM] | anchorage-independent growth of normal cells [3] | colony formation of HeLaS3 in soft agar [4] | anchorage-independent sphere growth of cells cancerated by Ras [5] | side effects [6]
Cc1cc2c(C(C)C)c(O)c(O)c(C=O)c2c(O)c1-c1c(C)cc2c(C(C)C)c(O)c(O)c(C=O)c2c1O [KIS7, gossypol] | equivalent PDH activities to non-infected mice | far lower dose as compared with DCA and Radicicol | inhibited PDK4 | 4 | did not inhibit | inhibited the colony formation | suppressed the anchorage-independent sphere growth | 
Cc1cc2c(C(C)C)c(O)c(O)c(/C=N/c3ccccc3C(=O)O)c2c(O)c1-c1c(C)cc2c(C(C)C)c(O)c(O)c(/C=N/c3ccccc3C(=O)O)c2c1O [KIS28] |  |  |  | 13.2 |  |  |  | 
O=C(O)C(Cl)Cl [DCA, dichloroacetic acid, reference compound] | equivalent PDH activities to non-infected mice |  |  |  |  |  |  | severe side effects such as neurotoxicity
Cc1cccc2c3c(ccc12)C1=C(C(=O)C3=O)[C@@H](C)CO1 [KIS116, dihydrotanshinone I] |  |  |  | < 4 | did not inhibit |  | suppressed the anchorage-independent sphere growth | 
CC1(C)CCC2=C(O1)c1ccccc1C(=O)C2=O [KIS24, β-lapachone] |  |  |  | 3 |  | inhibited the colony formation | suppressed the anchorage-independent sphere growth | 
C[C@H]1COC2=C1C(=O)C(=O)c1c2ccc2c1CCCC2(C)C [KIS37, cryptotanshinone] |  |  |  | 11 | did not inhibit | inhibited the colony formation | suppressed the anchorage-independent sphere growth | 
